Source: PMC6154322, “Anti-Trypanosomatid Elemanolide Sesquiterpene Lactones from Vernonia lasiopus O. Hoffm ^†” (Molecules : A Journal of Synthetic Chemistry and Natural …, 2017)
In brackets after ≈: the same amount, converted by molar mass. Several values for one entry are separate records, joined by “and”; a condition that tells them apart may be missing. Equal values may be shown once. Read-outs that look alike come from different tables or passages of the source.

Experiments:
[1] = test system: Trypanosoma brucei rhodesiense (bloodstream trypomastigotes, STIB 900 strain); assay: In vitro activity against T. b. rhodesiense bloodstream trypomastigotes (STIB 900); type: cell-based; conditions: for SI (selectivity index): ratio of cytotoxic (L6) over antiprotozoal (Tbr) IC50 values
[2] = Cytotoxicity test against mammalian cells (L6); conditions: rat
[3] = test system: Leishmania donovani (amastigotes, MHOM-ET-67/L82 strain); assay: In vitro activity against L. donovani amastigotes (MHOM-ET-67/L82); type: cell-based; conditions: Table 1, MHOM-ET-67/L82 amastigotes, values marked a: only one replicate, others mean of two ± SD, read-out: IC50 Ldon (crude extracts)
[4] = test system: P. falciparum (multidrug resistance strain K1); set-up: method as in PMID 24242110; conditions: cited from earlier work
[5] = test system: Plasmodium falciparum (intra erythrocytic forms, NF54 IEF strain); assay: In vitro activity against P. falciparum intra-erythrocytic forms (NF54); type: cell-based; conditions: NF54, read-out: IC50 Pf (crude extracts)
[6] = test system: P. falciparum chloroquine sensitive strain PoW; set-up: method as in PMID 12601673; conditions: cited from earlier work
[7] = test system: P. falciparum chloroquine-resistant strain Dd2; set-up: method as in PMID 12601673; conditions: cited from earlier work
[8] = Table 3, STIB 900 trypomastigotes, pure compounds, read-out: IC50 Tbr (elemanolides), value in brackets (converted)
[9] = Trypanosoma brucei, Table 3, STIB 900 trypomastigotes, pure compounds, read-out: IC50 Tbr (elemanolides), value in brackets (converted)
[10] = Trypanosoma brucei, Table 3, STIB 900 trypomastigotes, read-out: IC50 Tbr (elemanolides)

Compound	IC50 [1, 8] [nM]	IC50 [1, 9] [nM]	IC50 [1, 10] [µg/mL]	SI (selectivity index) [1]	IC50 [2]	other results
C=C[C@@]12COC(=O)C(=C)[C@@H]1[C@H]1OC(=O)C(=C)[C@@H]1[C@@H](O)C2 [Compound 2, Vernolepin]	185	190	0.05	14.5	0.735 µg/mL and 2.68 µM	IC50 Tbr (elemanolides) ([1]; Table 3, STIB 900 trypomastigotes): 0.051 ± 0.035 µg/mL (≈ 0.185 µM); times more active than the crude extract (Tbr) ([1]; versus DCM crude extract): approximately 3.5
CCCCCCCCCCCCCCCCOP(=O)([O-])OCC[N+](C)(C)C [miltefosine]	–	–	–	–	–	IC50 [3]: 0.091 ± 0.07 µg/mL (≈ 0.223 µM)
C=C[C@@]12COC(=O)C(=C)[C@@H]1[C@H]1OC(=O)C(=C)[C@@H]1[C@@H](OC(=O)C(=C)CO)C2 [Compound 5, Vernodalin]	–	–	–	–	–	IC50 anti-plasmodial activity, P. falciparum K1 [4]: 4.0 µg/mL (≈ 11.1 µM)
COc1cc([C@@H]2c3cc4c(cc3[C@H](O)[C@H]3COC(=O)[C@H]23)OCO4)cc(OC)c1OC [podophyllotoxin, reference compound]	–	–	–	–	0.007 ± 0.001 µg/mL (≈ 0.0169 µM)	–
Nc1nc(N)nc(Nc2ccc([As]3SCC(CO)S3)cc2)n1 (stereo not drawn) [melarsoprol, reference compound]	–	–	–	–	–	IC50 ([1]; Trypanosoma brucei, read-out: IC50 Tbr (crude extracts)): 0.003 ± 0.001 µg/mL
CCN(CC)CCCC(C)Nc1ccnc2cc(Cl)ccc12 (stereo not drawn) [chloroquine]	–	–	–	–	–	IC50 [5]: 0.002 µg/mL (≈ 0.00625 µM)
C=C[C@@]12COC(=O)C(=C)[C@@H]1[C@@H](O)[C@H](C(=C)C(=O)OC)[C@@H](OC(=O)C(=C)CO)C2 [Compound 4, Vernodalol]	255	260	0.1 ± 0.041	14.4	–	factor by which more active than compound 1 (Tbr) ([1]; compound 4 versus compound 1): ~10; IC50 anti-plasmodial activity, P. falciparum K1 [4]: 4.2 µg/mL (≈ 10.7 µM); IC50 ([2]; L6 rat skeletal myoblast cells): 1.44 µg/mL and 3.67 µM
C=CC12COC(=O)C(=C)C1C(O)C(C(=C)C(=O)OC)C(O)C2 (stereo not drawn) [Compound 1, 8-Desacylvernodalol]	2530	2500	0.779 ± 0.22	13.7	–	IC50 ([2]; L6 rat skeletal myoblast cells): 10.7 µg/mL and 34.6 µM
11,13-Dihydrovernodalin [Compound 6]	–	–	–	–	–	IC50 P. falciparum PoW [6]: 2.3 µg/mL; IC50 P. falciparum Dd2 [7]: 1.1 µg/mL
C=C[C@@]12COC(=O)C(=C)[C@@H]1[C@@H](O)[C@@H]1C(=C)C(=O)O[C@H]1C2 [Compound 3, Vernomenin]	–	508	0.14 ± 0.1	4.50	0.62 µg/mL and 2.26 µM	–
